Experimental findings from US20210277015A1, “OGA INHIBITOR COMPOUNDS” (Janssen Pharmaceutica NV, priority 2018, published 2021) are described below.

For this assay, the target named is T1, recombinant human Meningioma Expressed Antigen 5 (MGEA5), also referred to as O-GlcNAcase (OGA) (Homo sapiens, UniProt O60502).
T1 construct: Full length OGA enzyme was purchased at OriGene (cat #TP322411); purchased OriGene TP322411
T1 sequence (O60502 1-916): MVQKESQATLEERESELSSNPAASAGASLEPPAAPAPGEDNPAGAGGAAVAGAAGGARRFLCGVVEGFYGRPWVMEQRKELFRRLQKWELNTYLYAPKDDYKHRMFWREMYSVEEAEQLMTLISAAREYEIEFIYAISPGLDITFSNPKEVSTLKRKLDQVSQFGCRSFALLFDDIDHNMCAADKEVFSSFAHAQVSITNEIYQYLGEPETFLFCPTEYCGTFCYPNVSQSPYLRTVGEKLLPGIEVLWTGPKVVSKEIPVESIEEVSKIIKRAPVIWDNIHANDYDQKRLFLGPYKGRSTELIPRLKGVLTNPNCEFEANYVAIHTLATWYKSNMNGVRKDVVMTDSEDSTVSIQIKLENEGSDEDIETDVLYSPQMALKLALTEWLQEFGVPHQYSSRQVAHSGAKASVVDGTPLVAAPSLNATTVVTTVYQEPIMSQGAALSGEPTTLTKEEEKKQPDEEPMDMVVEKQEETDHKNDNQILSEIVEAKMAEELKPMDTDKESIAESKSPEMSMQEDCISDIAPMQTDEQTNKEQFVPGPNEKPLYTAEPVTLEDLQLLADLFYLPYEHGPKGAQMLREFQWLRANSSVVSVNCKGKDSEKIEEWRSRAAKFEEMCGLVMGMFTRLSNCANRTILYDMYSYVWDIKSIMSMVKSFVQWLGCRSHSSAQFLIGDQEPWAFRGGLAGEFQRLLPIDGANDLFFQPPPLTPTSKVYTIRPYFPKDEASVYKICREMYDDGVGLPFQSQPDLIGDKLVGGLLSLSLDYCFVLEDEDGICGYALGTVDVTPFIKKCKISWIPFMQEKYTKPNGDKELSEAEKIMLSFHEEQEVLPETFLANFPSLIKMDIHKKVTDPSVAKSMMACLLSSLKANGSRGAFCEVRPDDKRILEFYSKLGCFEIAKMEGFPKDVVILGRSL
The assay can be described thus: OGA biochemical assay (inhibition of FM-GlcNAc hydrolysis, fluorescence). To be noted: FM-GlcNAc substrate; for IC50: 6 h at room temperature, read-out: Enzymatic hOGA, pIC50 (converted); for Emax / Enzymatic Emax (%): maximal effect; for Emax: read-out: Enzymatic Emax (%). The source says:
The assay is based on the inhibition of the hydrolysis of fluorescein mono-β-D-N-Acetyl-Glucosamine (FM-GlcNAc) (Mariappa et al. 2015, Biochem J 470:255) by the recombinant human Meningioma Expressed Antigen 5 (MGEA5), also referred to as O-GlcNAcase (OGA). The hydrolysis FM-GlcNAc (Marker Gene technologies, cat #M1485) results in the formation of β-D-N-glucosamineacetate and fluorescein. The fluorescence of the latter can be measured at excitation wavelength 485 nm and emission wavelength 538 nm. An increase in enzyme activity results in an increase in fluorescence signal. Full length OGA enzyme was purchased at OriGene (cat #TP322411). The enzyme was stored in 25 mM Tris.HCl, pH 7.3, 100 mM glycine, 10% glycerol at −20° C. Thiamet G and GlcNAcStatin were tested as reference compounds (Yuzwa et al. 2008 Nature Chemical Biology 4:483; Yuzwa et al. 2012 Nature Chemical Biology 8:393). The assay was performed in 200 mM Citrate/phosphate buffer supplemented with 0.005% Tween-20. 35.6 g Na2HPO4 2 H2O (Sigma, #C0759) were dissolved in 1 L water to obtain a 200 mM solution. 19.2 g citric acid (Merck, #1.06580) was dissolved in 1 L water to obtain a 100 mM solution. pH of the sodium phosphate solution was adjusted with the citric acid solution to 7.2. The buffer to stop the reaction consists of a 500 mM Carbonate buffer, pH 11.0. 734 mg FM-GlcNAc were dissolved in 5.48 mL DMSO to obtain a 250 mM solution and was stored at −20° C. OGA was used at a 2 nM concentration and FM-GlcNAc at a 100 uM final concentration. Dilutions were prepared in assay buffer.
50 nl of a compound dissolved in DMSO was dispensed on Black Proxiplate™ 384 Plus Assay plates (Perkin Elmer, #6008269) and 3 μl fl-OGA enzyme mix added subsequently. Plates were pre-incubated for 60 min at room temperature and then 2 μl FM-GlcNAc substrate mix added. […] Plates were briefly centrifuged for 1 min at 1000 rpm and incubate at room temperature for 6 h. To stop the reaction 5 μl STOP buffer were added and plates centrifuge again 1 min at 1000 rpm. Fluorescence was quantified in the Thermo Scientific Fluoroskan Ascent or the PerkinElmer EnVision with excitation wavelength 485 nm and emission wavelength 538 nm.
For analysis a best-fit curve is fitted by a minimum sum of squares method. From this an IC50 value and Hill coefficient was obtained. High control (no inhibitor) and low control (saturating concentrations of standard inhibitor) were used to define the minimum and maximum values.

As to `COc1cc(O[C@@H]2CCN(C(C)c3ccc4c(n3)OCCO4)C2)cc(C)n1` (mixture of isomers) [Product 76], the IC50 is 1.58 µM and the Emax (commonly the greatest response seen or fitted, relative to the assay's reference) came to 84%.

Consider `COc1cc(CC2(C)CCN(C(C)c3ccc4c(n3)OCCO4)C2)cc(C)n1` (mixture of isomers) [Product 91], for which the IC50 was 0.158 µM and the Emax stood at 100%.

As to `Cc1cnc(C[C@H]2CCN(C(C)c3cc4c(cc3F)OCCO4)C2)c(C)n1` (mixture of isomers) [Product 96], the IC50 is 0.0631 µM and the Emax was 101%.

For `Cc1cc(O[C@H]2CCN(C(C)c3ccc4c(n3)OCCO4)C2)cc(C)n1` (mixture of isomers) [Product 70], the IC50 is 1.26 µM and the Emax was 94%.

For `Cc1cc(C[C@@H]2CCN(C(C)c3ccc4c(n3)OCCO4)C2)cc(C)n1` (mixture of isomers) [Product 78], the IC50 is 0.0631 µM and the Emax came out at 101%.

As for `COc1cc(C[C@H]2CCN([C@H](C)c3cc4c(cc3F)NCCO4)C2)cc(C)n1` (racemic) [Product 81], the IC50 is 0.794 µM and the Emax was determined as 92%.

As for `COc1cc(C[C@@H]2CCN(C(C)c3ccc4c(n3)OCCO4)C2)cc(C)n1` (mixture of isomers) [Product 89], the IC50 is 0.1 µM and the Emax was 100%.

Consider `Cc1cc(C[C@H]2CCN([C@H](C)c3ccc4c(c3)OCC4)C2)cc(C)n1` (single isomer, unassigned) [Product 13], for which the IC50 is 1 µM and the Emax was found to be 91%.

`C[C@H](c1ccc2c(n1)OCCO2)N1CC[C@H](Cc2ncc(F)cc2F)C1` (single isomer, unassigned) [Product 22]: the IC50 is above 10 µM and the maximal response (Emax) was 32%.

In the case of `CC(c1ccc2c(n1)OCCO2)N1CC[C@H](Cc2ncc(F)cc2F)C1` (single isomer, unassigned) [Product 23], the IC50 is 0.398 µM and the Emax worked out at 97%.

Consider `Cc1cnc(C[C@H]2CCN(C(C)c3ccc4c(n3)OCCO4)C2)c(C)n1` (single isomer, unassigned) [Product 25], for which the IC50 is 0.158 µM and the “Enzymatic Emax (%)” value is given as 100%.

Turning to `Cc1cnc(C[C@H]2CCN(C(C)c3ccc4c(n3)OCCO4)C2)c(C)n1` (single isomer, unassigned) [Product 26], the IC50 was above 10 µM and the “Enzymatic Emax (%)” value is given as 35%.

As for `CC(c1cc2c(cc1F)OCCO2)N1CC[C@H](Cc2ncc(F)cc2F)C1` (single isomer, unassigned) [Product 28], the IC50 was 5.01 µM and the “Enzymatic Emax (%)” value came to 67%.

`COc1cc(O[C@H]2CCN(C(C)c3ccc4c(n3)OCCO4)C2)cc(C)n1` (single isomer, unassigned) [Product 64]: the IC50 was 0.398 µM and the Emax worked out at 99%.

Regarding `COc1cc(C[C@H]2CCN(C(C)c3nc4c(cc3F)CCO4)C2)cc(C)n1` (single isomer, unassigned) [Product 85], the IC50 was 0.2 µM and the “Enzymatic Emax (%)” value turned out to be 99%.

In the case of `COc1cc(C[C@H]2CCN(C(C)c3ccc4c(n3)OCCC4)C2)cc(C)n1` (single isomer, unassigned) [Product 87], the IC50 is 0.126 µM and the “Enzymatic Emax (%)” value is on record as 99%.

On to `COc1cc(C[C@H]2CCN(C(C)c3ccc4c(n3)OCCC4)C2)cc(C)n1` (single isomer, unassigned) [Product 88], for which the IC50 was above 10 µM and the “Enzymatic Emax (%)” value was 38%.

As for `COc1cc(C[C@]2(C)CCN([C@H](C)c3ccc4c(n3)OCCO4)C2)cc(C)n1` (single isomer, unassigned) [Product 92], the IC50 is 6.31 µM and the Emax worked out at 63%.

With `COc1cc(C[C@]2(C)CCN([C@@H](C)c3ccc4c(n3)OCCO4)C2)cc(C)n1` (single isomer, unassigned) [Product 93], the IC50 was 7.94 µM and the Emax came out at 55%.

For the compound `COc1cc(C[C@@]2(C)CCN([C@H](C)c3ccc4c(n3)OCCO4)C2)cc(C)n1` (single isomer, unassigned) [Product 94], the IC50 was 1 µM and the Emax was 93%.

On to `Cc1cnc(C[C@H]2CCN(C(C)c3cc4c(cc3F)OCCO4)C2)c(C)n1` (single isomer, unassigned) [Product 97], for which the IC50 is above 10 µM and the “Enzymatic Emax (%)” value was determined as 37%.

`Cc1cnc(C[C@H]2CCN(C(C)c3cc4c(cc3F)OCCO4)C2)c(C)n1` (single isomer, unassigned) [Product 98]: the IC50 was 0.0316 µM and the “Enzymatic Emax (%)” value is listed as 103%.

For the compound `Cc1cc(C[C@H]2CCN(C(C)c3ccc4c(c3)OCCN4C)C2)cc(C)n1` (stereo partly shown) [Product 1], the IC50 was 2 µM and the maximal effect (Emax) stood at 85%.

Consider `Cc1cc(C[C@H]2CCN(Cc3ccc4c(c3)OCCN4C)C2)cc(C)n1` [Product 2], for which the IC50 is 6.17 µM and the Emax was 61%.

With `Cc1cc(C2CCN(C(C)c3ccc4c(n3)OCCO4)C2)cc(C)n1` (stereo not shown) [Product 3], the IC50 was 0.501 µM and the Emax stood at 99%.

Regarding `COc1cc(C[C@H]2CCN(C(C)c3ccc4c(n3)OCCO4)C2)cc(C(F)(F)F)n1` (stereo partly shown) [Product 4], the IC50 is 0.1 µM and the Emax came to 103%.

Regarding `Cc1cc(C[C@H]2CCN(C(C)c3ccc4c(n3)OCCO4)C2)cc(C)n1` (stereo partly shown) [Product 12], the IC50 was 0.158 µM and the Emax is 101%.

Regarding `CC(c1ccc2c(n1)OCCO2)N1CC[C@H](Cc2ncc(F)cc2F)C1` (stereo partly shown) [Product 21], the IC50 is 0.631 µM and the maximal response (Emax) is 94%.

For the compound `Cc1cnc(C[C@H]2CCN(C(C)c3ccc4c(n3)OCCO4)C2)c(C)n1` (stereo partly shown) [Product 24], the IC50 is 0.251 µM and the maximal response (Emax) is 101%.

`CC(c1cc2c(cc1F)OCCO2)N1CC[C@H](Cc2ncc(F)cc2F)C1` (stereo partly shown) [Product 27]: the IC50 was 0.126 µM and the Emax was found to be 102%.

Consider `Cc1cc(C[C@H]2CCN(C(C)c3cc4c(cc3F)OCCO4)C2)cc(C)n1` (stereo partly shown) [Product 30], for which the IC50 was 0.02 µM and the Emax came out at 102%.

For the compound `Cc1cc(C[C@H]2CCN([C@H](C)c3cc4c(cc3F)OCCO4)C2)cc(C)n1` [Product 31], the IC50 was 0.631 µM and the Emax amounted to 96%.

Consider `COc1cc(C[C@H]2CCN(C(C)c3cnc4c(c3)C(=O)N(C)CC4)C2)cc(C)n1` (stereo partly shown) [Product 33], for which the IC50 is 0.126 µM and the Emax stood at 102%.

In the case of `COc1cc(C[C@H]2CCN([C@H](C)c3cnc4c(c3)C(=O)N(C)CC4)C2)cc(C)n1` [Product 34], the IC50 was 7.94 µM and the Emax was found to be 58%.

As to `COc1cc(C[C@@H]2CCN([C@H](C)c3cc4c(cc3F)OCCO4)C2)cc(C)n1` [Product 42], the IC50 was 1 µM and the Emax was determined as 93%.
